From patent publication US20230174530A1, “N-(PHENYLAMINOCARBONYL) TETRAHYDRO-ISOQUINOLINES AND RELATED COMPOUNDS AS MODULATORS OF GPR65” (PATHIOS THERAPEUTICS LIMITED, priority 2020, published 2023)

Each compound was assayed against T1, human recombinant GPR65 (Homo sapiens, UniProt Q8IYL9) (assay: Human GPR65 cAMP HTRF antagonist assay). Details: 1321N1-hrGPR65 cells stimulated at assay pH 7.2; suppression of cAMP rise; read-out: hGPR65 IC50.
T1 construct: host or cells: 1321N1 human astrocytoma cells (1321N1-hrGPR65)
Type: cell-based
How it was run: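 1321N1 astrocytoma cells stably expressing human GPR65, 2,000 per well in KRH with 1 mM IBMX and 200 μM EDTA, preincubated 30 min with compound at RT. Acid stimulation at pH 7.2 for 30 min, pH 7.9 as control. cAMP read by HTRF 665/620 ratio; IC50 from normalised 4-parameter fit.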

T1 sequence (Q8IYL9 whole entry): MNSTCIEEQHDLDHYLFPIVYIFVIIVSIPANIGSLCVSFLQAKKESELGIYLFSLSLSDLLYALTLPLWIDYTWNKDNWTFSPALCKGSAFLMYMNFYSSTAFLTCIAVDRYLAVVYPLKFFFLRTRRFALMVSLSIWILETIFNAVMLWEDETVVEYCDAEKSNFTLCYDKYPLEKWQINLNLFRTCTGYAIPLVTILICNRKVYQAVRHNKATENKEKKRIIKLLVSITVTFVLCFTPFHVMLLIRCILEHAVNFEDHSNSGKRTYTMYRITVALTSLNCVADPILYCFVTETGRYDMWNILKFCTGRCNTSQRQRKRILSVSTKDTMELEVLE

Row | IC50 [nM] | Compound
1 | 500 to 5000 | N#Cc1cccc2c1CCN(C(=O)Nc1ccc(Cl)c(C(F)(F)F)c1)C2 [Compound 137, N-(4-Chloro-3-(trifluoromethyl)phenyl)-5-cyano-3,4-dihydroisoquinoline-2(1H)-carboxamide]
2 | 500 to 5000 | O=C(Nc1ccc(Cl)c(Cl)c1)N1CCc2ccc(Cl)cc2C1 [Compound 138, 7-Chloro-N-(3,4-dichlorophenyl)-3,4-dihydroisoquinoline-2(1H)-carboxamide]
3 | 500 to 5000 | O=C(Nc1ccc(Cl)c(Cl)c1)N1CCc2cccc(Cl)c2C1 [Compound 139, 8-Chloro-N-(3,4-dichlorophenyl)-3,4-dihydroisoquinoline-2(1H)-carboxamide]
4 | < 500 | Cc1noc(-c2ccc3c(c2)CCN(C(=O)Nc2ccc(Cl)c(Cl)c2)C3)n1 [Compound 140, N-(3,4-Dichlorophenyl)-6-(3-methyl-1,2,4-oxadiazol-5-yl)-3,4-dihydroisoquinoline-2(1H)-carboxamide]
